Reference: patent publication EP0761658A1, “Azole-phenyl urea derivatives as ACAT inhibitors and their production” (NIHON NOHYAKU CO., LTD., priority 1995, dated 1997)

Legend:
[1] = tested on: rats fed on a high-cholesterol diet; assay: Serum cholesterol lowering activity in rats fed on a high-cholesterol diet; format: in vivo, Male Sprague-Dawley rats; details: Rattus norvegicus, 96 h; total serum cholesterol; 30 mg per kg of body weight per day for 4 days, suspended in 0.5% carboxymethyl cellulose; blood 24 hours after last administration; read-out: Reduction rate (%)
Experimental: Male Sprague-Dawley rats of 6-week-old were divided into three groups. The first group (normal group) was fed an ordinary diet for 4 days. The second group (control group) was fed a high cholesterol diet (containing 1.0% cholesterol, 1.0% cholic acid and 8.5% coconut oil) for 4 days. The third group (treated group) was fed a high cholesterol diet and was treated with a compound for 4 days.
Simultaneously with the beginning of the above feeding, the compound was suspended in a 0.5% carboxymethyl cellulose solution and administered to the treated group, in a dose of 30 mg (in terms of the compound) per kg of body weight per day for 4 days. A 0.5% carboxymethyl cellulose solution was also administered to the normal group and the control group in the same manner as above.
After 24 hours of the last administration, blood was collected and the cholesterol concentration in serum was measured by an enzymatic method. The reduction rate of the total serum cholesterol concentration was calculated from values obtained for the three groups by the following equation. Choresterol reduction rate (%) =((A) - (B))/((A) - (C))x 100 [formula] wherein A: the serum cholesterol concentration of the control group. B: the serum cholesterol concentration of the treated group. C: the serum cholesterol concentration of the normal group.

[2] = tested on: acyl-CoA:cholesterol acyltransferase (ACAT); assay: Inhibitory activity on acyl-CoA:cholesterol acyltransferase (ACAT), microsomal fraction of intestinal mucosa, [1-14C]oleyl-CoA incorporation into cholesterol esters; format: biochemical, white rabbit; details: compound concentration 0.01 µm; rabbit intestinal mucosa microsomes
Experimental: The enzyme used in the test was prepared according to the method of Heider et al. [J. Lipid Res. 24, 1127 (1983)]. A white rabbit was killed by blood-letting under anesthesia, after which its intestinal mucosa was collected and then homogenized, and microsomal fraction was obtained by stepwise centrifugation. The microsomal fraction was suspended in 0.154 M phosphate buffer (pH 7.4) and stored at -80°C until use.
ACAT activity was determined by a modification of the method of Helgerud et al. [J. Lipid Res. 22, 271 (1981)] by measuring radioactivity incorporated into cholesterol esters from [1-^14C]oleyl-CoA, as an indication. As to the ACAT-inhibitory activity of each compound to be tested, the inhibition rate was calculated by the following equation. Inhibition rate (%) =([ACAT activity of control group which was given solvent]-[ACAT activity of group treated with compound to be tested])/([ACAT activity of control group which was given solvent])x 100 [formula]

Inhibition rate % [2]: 80.4%
Compound: CC(C)c1cccc(C(C)C)c1NC(=O)Nc1nc(-c2ccccc2)n(Cc2ccccc2)c1-c1ccccc1Cl [Compound 37, N-[1-Benzyl-5-(2-chlorophenyl)-2-phenylimidazol-4-yl]-N'-(2,6-diisopropylphenyl)urea]
inhibition in vivo at 30 mg/kg [1]: 59%
